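96-well plates; 48 h exposure; 5 concentrations. Endpoints by linear interpolation between flanking doses. Not reached: highest tested concentration assigned. TGI marks complete inhibition of growth.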
Legend:
Assay in all cases: DTP human tumour cell line panel, 48 h
786-0 renal = tested on: 786-0 renal
A498 renal = tested on: A498 renal
A549 NSCLC = tested on: A549 NSCLC
ACHN renal = tested on: ACHN renal
CCRF-CEM leukemia = tested on: CCRF-CEM leukemia
COLO 205 colon = tested on: COLO 205 colon
DLD-1 colon = tested on: DLD-1 colon
DMS 114 small cell lung = tested on: DMS 114 small cell lung
EKVX NSCLC = tested on: EKVX NSCLC
HCC-2998 colon = tested on: HCC-2998 colon
HCT-116 colon = tested on: HCT-116 colon
HCT-15 colon = tested on: HCT-15 colon
HL-60(TB) leukemia = tested on: HL-60(TB) leukemia
HOP-62 NSCLC = tested on: HOP-62 NSCLC
HT29 colon = tested on: HT29 colon
IGROV1 ovarian = tested on: IGROV1 ovarian
K-562 leukemia = tested on: K-562 leukemia
KM12 colon = tested on: KM12 colon
KM20L2 colon = tested on: KM20L2 colon
LOX IMVI melanoma = tested on: LOX IMVI melanoma
LXFL 529 NSCLC = tested on: LXFL 529 NSCLC
M19-MEL melanoma = tested on: M19-MEL melanoma
MALME-3M melanoma = tested on: MALME-3M melanoma
MOLT-4 leukemia = tested on: MOLT-4 leukemia
NCI-H226 lung = tested on: NCI-H226 lung
NCI-H23 lung = tested on: NCI-H23 lung
NCI-H460 lung = tested on: NCI-H460 lung
NCI-H522 lung = tested on: NCI-H522 lung
OVCAR-3 ovarian = tested on: OVCAR-3 ovarian
OVCAR-4 ovarian = tested on: OVCAR-4 ovarian
OVCAR-5 ovarian = tested on: OVCAR-5 ovarian
OVCAR-8 ovarian = tested on: OVCAR-8 ovarian
RPMI-8226 leukemia = tested on: RPMI-8226 leukemia
RXF 393 renal = tested on: RXF 393 renal
SF-268 CNS = tested on: SF-268 CNS
SF-295 CNS = tested on: SF-295 CNS
SK-MEL-28 melanoma = tested on: SK-MEL-28 melanoma
SK-MEL-5 melanoma = tested on: SK-MEL-5 melanoma
SN12C renal = tested on: SN12C renal
SNB-19 CNS = tested on: SNB-19 CNS
SNB-78 CNS = tested on: SNB-78 CNS
SR leukemia = tested on: SR leukemia
SW-620 colon = tested on: SW-620 colon
TK-10 renal = tested on: TK-10 renal
U251 CNS = tested on: U251 CNS
UACC-257 melanoma = tested on: UACC-257 melanoma
UO-31 renal = tested on: UO-31 renal
XF 498 CNS = tested on: XF 498 CNS
M14 melanoma = tested on: M14 melanoma
SF-539 CNS = tested on: SF-539 CNS
SK-OV-3 ovarian = tested on: SK-OV-3 ovarian
SNB-75 CNS = tested on: SNB-75 CNS
UACC-62 melanoma = tested on: UACC-62 melanoma
DMS 273 small cell lung = tested on: DMS 273 small cell lung
HOP-92 NSCLC = tested on: HOP-92 NSCLC
RXF-631 renal = tested on: RXF-631 renal
CAKI-1 renal = tested on: CAKI-1 renal
SK-MEL-2 melanoma = tested on: SK-MEL-2 melanoma

Measured: TGI

c1ccc(C2[C@@H]3CCCc4ccccc4C3=NN2c2ccccc2)cc1 (stereo partly specified)
47.1 µM: SK-MEL-5 melanoma
not listed: M14 melanoma | SF-539 CNS | SK-OV-3 ovarian | SNB-75 CNS | UACC-62 melanoma | DMS 273 small cell lung | HOP-92 NSCLC | RXF-631 renal | CAKI-1 renal | SK-MEL-2 melanoma
> 100 µM: all other assays above

OCC(O)C(OC1OC(CO)C(O)C(O)C1O)c1nn(-c2ccccc2)c2nc3cc(Cl)ccc3nc12 (stereo unspecified)
not listed: A549 NSCLC | COLO 205 colon | HL-60(TB) leukemia | IGROV1 ovarian | NCI-H226 lung | SK-MEL-5 melanoma | SW-620 colon | DMS 273 small cell lung | HOP-92 NSCLC | RXF-631 renal | CAKI-1 renal | SK-MEL-2 melanoma
> 100 µM: all other assays above

c1ccc(CCn2cncn2)cc1
not listed: 786-0 renal | A498 renal | LOX IMVI melanoma | OVCAR-8 ovarian | RPMI-8226 leukemia | RXF 393 renal | XF 498 CNS | CAKI-1 renal | SK-MEL-2 melanoma
> 100 µM: all other assays above

COc1ccc(/C=N/Nc2nc(C)c3c(n2)Nc2ccccc2NC3=O)cc1
not listed: A549 NSCLC | EKVX NSCLC | HCT-15 colon | HT29 colon | KM12 colon | KM20L2 colon | LOX IMVI melanoma | NCI-H460 lung | OVCAR-3 ovarian | OVCAR-5 ovarian | OVCAR-8 ovarian | RXF 393 renal | SF-295 CNS | SK-MEL-5 melanoma | SNB-19 CNS | SW-620 colon | TK-10 renal | U251 CNS | UACC-257 melanoma | RXF-631 renal
> 100 µM: all other assays above

From PubChem BioAssay (NCI)
